In PubChem BioAssay AID1963847 (Molecular Pharmacology Branch, DTP, NCI, 2024):

System: 415267-285-R-J2-PDC complex spheroid viability
Test: Anticancer human tumor 415267-285-R-J2-PDC patient-derived breast carcinoma cell line growth inhibition [POLQ]
Conditions: for IC50: curve of first compound; for viability, T/C: stronger effect = lower value; active = viability on the fitted dose curve at most 10% of control; inactive = the rest
Procedure, shortened: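 Growth inhibition in 3D: complex spheroids (tumor PDC, HUVEC, MSC) treated with POLQ inhibitor combinations; where Cmax unknown, highest tested concentration 10 microM, except SN-38 at 1 microM.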

[1] = second compound 0.0316 µM, first compound 0.0316 µM
[2] = second compound 0.0316 µM, first compound 0.1 µM
[3] = second compound 0.1 µM, first compound 0.0316 µM
[4] = second compound 0.1 µM, first compound 0.1 µM
[5] = second compound 0.316 µM, first compound 0.0316 µM
[6] = second compound 0.316 µM, first compound 0.1 µM
[7] = second compound 1 µM, first compound 0.0316 µM
[8] = second compound 1 µM, first compound 0.1 µM
[9] = second compound 3.16 µM, first compound 0.0316 µM
[10] = second compound 3.16 µM, first compound 0.1 µM
[11] = second compound 10 µM, first compound 0.0316 µM
[12] = second compound 10 µM, first compound 0.1 µM
[13] = second compound 0.0316 µM, first compound 0.316 µM
[14] = second compound 0.0316 µM, first compound 1 µM
[15] = second compound 0.0316 µM, first compound 3.16 µM
[16] = second compound 0.0316 µM, first compound 10 µM
[17] = second compound 0.1 µM, first compound 0.316 µM
[18] = second compound 0.1 µM, first compound 1 µM
[19] = second compound 0.1 µM, first compound 3.16 µM
[20] = second compound 0.1 µM, first compound 10 µM
[21] = second compound 0.316 µM, first compound 0.316 µM
[22] = second compound 0.316 µM, first compound 1 µM
[23] = second compound 0.316 µM, first compound 3.16 µM
[24] = second compound 0.316 µM, first compound 10 µM
[25] = second compound 1 µM, first compound 0.316 µM
[26] = second compound 1 µM, first compound 1 µM
[27] = second compound 1 µM, first compound 3.16 µM
[28] = second compound 1 µM, first compound 10 µM
[29] = second compound 3.16 µM, first compound 0.316 µM
[30] = second compound 3.16 µM, first compound 1 µM
[31] = second compound 3.16 µM, first compound 3.16 µM
[32] = second compound 3.16 µM, first compound 10 µM
[33] = second compound 10 µM, first compound 0.316 µM
[34] = second compound 10 µM, first compound 1 µM
[35] = second compound 10 µM, first compound 3.16 µM
[36] = second compound 10 µM, first compound 10 µM
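Also: spheroids exposed to compounds for one week before readout.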
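For viability, T/C in this document: luminescence used as stand-in measure of viable cells; 100% = DMSO vehicle control viability.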

CC[C@@]1(O)C(=O)OCc2c1cc1n(c2=O)Cc2cc3c(CN(C)C)c(O)ccc3nc2-1 + Cc1cccc(N(C)C(=O)C2C(O)CCN2c2nc(C)cc(C(F)(F)F)c2C#N)c1
20.6 nM: IC50 (second compound 0.316 µM)
18.2 nM: IC50 (second compound 10 µM)
19.8 nM: IC50 (second compound 0.0316 µM)
18.9 nM: IC50 (second compound 1 µM)
active: viability, T/C [2] 7.7% | viability, T/C [4] 7.92% | viability, T/C [6] 9.41% | viability, T/C [8] 7.15% | viability, T/C [10] 8.04% | viability, T/C [12] 9.1%
inactive: viability, T/C (second compound 0.0316 µM, first compound 0.000316 µM) 90.7% | viability, T/C (second compound 0.0316 µM, first compound 0.001 µM) 102% | viability, T/C (second compound 0.0316 µM, first compound 0.00316 µM) 103% | viability, T/C (second compound 0.0316 µM, first compound 0.01 µM) 90.9% | viability, T/C [1] 22% | viability, T/C (second compound 0.1 µM, first compound 0.000316 µM) 96.9% | viability, T/C (second compound 0.1 µM, first compound 0.001 µM) 96.9% | viability, T/C (second compound 0.1 µM, first compound 0.00316 µM) 101% | viability, T/C (second compound 0.1 µM, first compound 0.01 µM) 86.5% | viability, T/C [3] 19.9% | viability, T/C (second compound 0.316 µM, first compound 0.000316 µM) 102% | viability, T/C (second compound 0.316 µM, first compound 0.001 µM) 98% | viability, T/C (second compound 0.316 µM, first compound 0.00316 µM) 102% | viability, T/C (second compound 0.316 µM, first compound 0.01 µM) 104% | viability, T/C [5] 19.2% | viability, T/C (second compound 1 µM, first compound 0.000316 µM) 101% | viability, T/C (second compound 1 µM, first compound 0.001 µM) 96.4% | viability, T/C (second compound 1 µM, first compound 0.00316 µM) 107% | viability, T/C (second compound 1 µM, first compound 0.01 µM) 89.5% | viability, T/C [7] 18.1% | viability, T/C (second compound 3.16 µM, first compound 0.000316 µM) 98.5% | viability, T/C (second compound 3.16 µM, first compound 0.001 µM) 102% | viability, T/C (second compound 3.16 µM, first compound 0.00316 µM) 92% | viability, T/C (second compound 3.16 µM, first compound 0.01 µM) 91.7% | viability, T/C [9] 13.8% | viability, T/C (second compound 10 µM, first compound 0.000316 µM) 108% | viability, T/C (second compound 10 µM, first compound 0.001 µM) 96.2% | viability, T/C (second compound 10 µM, first compound 0.00316 µM) 104% | viability, T/C (second compound 10 µM, first compound 0.01 µM) 85.6% | viability, T/C [11] 17.1%
18.8 nM: IC50 (second compound 0.1 µM)
18.5 nM: IC50 (second compound 3.16 µM)

Nc1ccn(C2OC(CO)C(O)C2(F)F)c(=O)n1 (stereo unspecified) + Cc1cccc(N(C)C(=O)C2C(O)CCN2c2nc(C)cc(C(F)(F)F)c2C#N)c1
inactive: viability, T/C [7] 12.5%
< 31.6 nM: IC50 (second compound 0.0316 µM) | IC50 (second compound 0.1 µM) | IC50 (second compound 0.316 µM) | IC50 (second compound 1 µM) | IC50 (second compound 3.16 µM) | IC50 (second compound 10 µM)
active: viability, T/C [1] 8.22% | viability, T/C [2] 6.11% | viability, T/C [13] 5.62% | viability, T/C [14] 4.61% | viability, T/C [15] 5.96% | viability, T/C [16] 5.35% | viability, T/C [3] 8.77% | viability, T/C [4] 5.43% | viability, T/C [17] 6.85% | viability, T/C [18] 5.22% | viability, T/C [19] 6.13% | viability, T/C [20] 4.79% | viability, T/C [5] 8.5% | viability, T/C [6] 6.58% | viability, T/C [21] 5.69% | viability, T/C [22] 5.62% | viability, T/C [23] 6.58% | viability, T/C [24] 6.07% | viability, T/C [8] 6.12% | viability, T/C [25] 5.2% | viability, T/C [26] 5.51% | viability, T/C [27] 5.07% | viability, T/C [28] 5.32% | viability, T/C [9] 7.95% | viability, T/C [10] 5.96% | viability, T/C [29] 5.8% | viability, T/C [30] 4.93% | viability, T/C [31] 5.53% | viability, T/C [32] 5.95% | viability, T/C [11] 9.14% | viability, T/C [12] 6.37% | viability, T/C [33] 6.58% | viability, T/C [34] 5.23% | viability, T/C [35] 6.03% | viability, T/C [36] 5.65%

CNCc1ccc(-c2[nH]c3cc(F)cc4c3c2CCNC4=O)cc1 + Cc1cccc(N(C)C(=O)C2C(O)CCN2c2nc(C)cc(C(F)(F)F)c2C#N)c1
> 10000 nM: IC50 (second compound 0.0316 µM) | IC50 (second compound 0.1 µM) | IC50 (second compound 0.316 µM) | IC50 (second compound 1 µM) | IC50 (second compound 3.16 µM) | IC50 (second compound 10 µM)
inactive: viability, T/C [1] 94.8% | viability, T/C [2] 97.2% | viability, T/C [13] 106% | viability, T/C [14] 116% | viability, T/C [15] 94.5% | viability, T/C [16] 110% | viability, T/C [3] 99.8% | viability, T/C [4] 86.7% | viability, T/C [17] 102% | viability, T/C [18] 96.3% | viability, T/C [19] 105% | viability, T/C [20] 105% | viability, T/C [5] 97.5% | viability, T/C [6] 103% | viability, T/C [21] 101% | viability, T/C [22] 101% | viability, T/C [23] 102% | viability, T/C [24] 99.6% | viability, T/C [7] 97.8% | viability, T/C [8] 96.3% | viability, T/C [25] 93.7% | viability, T/C [26] 100% | viability, T/C [27] 104% | viability, T/C [28] 84.3% | viability, T/C [9] 94% | viability, T/C [10] 100% | viability, T/C [29] 100% | viability, T/C [30] 98% | viability, T/C [31] 97.8% | viability, T/C [32] 94.6% | viability, T/C [11] 98.4% | viability, T/C [12] 90.2% | viability, T/C [33] 96.3% | viability, T/C [34] 95.1% | viability, T/C [35] 96.9% | viability, T/C [36] 88.9%
